Experimental data from patent US20130031644A1, “AUTONOMOUS LUX REPORTER SYSTEM AND METHODS OF USE” (University of Tennessee Research Foundation, priority 2011, published 2013).

How the values were obtained:
[1] = test system: luxC gene transcription under the tetracycline response element in HEK293 cells (pLuxAB/pLuxCDEfrp-TET); experiment: rt-PCR of luxC transcription in response to doxycycline; type: cell-based, human; settings: for average CT value for luxC detection: 24 h, average of eleven cell lines; for increase in luxC transcription / reduction of cycles to reach CT: best performing cell line
Method: Twenty-four h post-transfection, the medium was removed and replaced with complete medium supplemented with the appropriate antibiotic. Selection of successfully transfected clones was performed by refreshing selective medium every 4-5 d until all untransfected cells had died. At this time, colonies of transfected cells were removed by scraping, transferred to individual 25 cm^2 cell culture flasks, and grown in complete medium supplemented with the appropriate antibiotics. To screen the resulting cell lines for the ability to regulate luxC transcription in response to doxycycline, relative reverse transcription PCR (rt-PCR) was used to determine the level of luxC mRNA present 24 h following the addition of 0, 10, or 100 ng doxycycline/ml to the complete growth medium. To this end, each isolated cell line was split into 4 25 cm^2 cell culture flasks upon reaching 80% confluence. Cells were then grown at 37° C. and 5% CO2 until again reaching ˜80% confluence. At this point, one of the flasks was routinely passaged to maintain a stock of cells for future use. The remaining 3 flasks were spiked with 0, 10, or 100 ng doxycycline/ml and returned to the incubator. Twenty-four h post doxycycline addition, cells were harvested and total RNA was isolated using an RNeasy isolation kit (Qiagen). Isolated RNA was used directly for rt-PCR analysis, and cell lines displaying the greatest range in luxC transcription between 0 ng Doxycycline/ml treatment and either 10 ng or 100 ng doxycycline/ml treatment were selected for bioluminescent screening.

[2] = test system: tetracycline responsive lux reporter HEK293 cells (pLuxAB/pLuxCDEfrp-TET); experiment: Bioluminescent measurement in response to doxycycline; type: cell-based, human; settings: for average total flux: 24 h period; for range of total flux over the course of the assay: after 1 h post treatment
Method: Cell lines displaying the greatest upregulation of luxC gene transcription following treatment with 10 ng and 100 ng Doxycycline/ml were passaged into 75 cm^2 tissue culture flasks (Corning) and grown at 37° C. and 5% CO2 until they reached 90% confluence. Cells were then harvested by trypsinization and cell number was determined as the average of two counts using a hemocytometer. Approximately 1×10^6 cells per well were plated in triplicate in opaque 24-well tissue culture plates (Costar) in DMEM without phenol red and supplemented with 10% fetal bovine serum, 0.01 mM non-essential amino acids, and 0.01 mM sodium pyruvate. Immediately post plating, wells were spiked with either 0, 10, 100, or 500 ng Doxycycline/ml. Photon counts were then recorded using an IVIS Lumina in vivo imaging system and analyzed with Living Image 3.0 software (Caliper Life Sciences). The change in light output over time was determined in photons (p)/sec (s) for each well by averaging the photon output over integration times of 10 min and reported with the standard error of the mean.

[3] = molecular target: T1, bacterial luciferase (lux) in protein extracts of HEK293 cells (Photorhabdus luminescens, UniProt P19839); experiment: In vitro supplementation assays of lux cell extracts (oxidoreductase, aldehyde); type: biochemical, P. luminescens; settings: 0.002% (w/v) n-decanal
T1 construct: expressed in transfected cells; host or cells: HEK293 cells stably carrying pLuxAB (luxA-IRES-luxB, CMV promoter), co-transfected with pLuxCDEfrp:WT or pLuxCDEfrp:CO; The soluble protein extract was made by freeze/thaw
T1 sequence (P19839 1-360): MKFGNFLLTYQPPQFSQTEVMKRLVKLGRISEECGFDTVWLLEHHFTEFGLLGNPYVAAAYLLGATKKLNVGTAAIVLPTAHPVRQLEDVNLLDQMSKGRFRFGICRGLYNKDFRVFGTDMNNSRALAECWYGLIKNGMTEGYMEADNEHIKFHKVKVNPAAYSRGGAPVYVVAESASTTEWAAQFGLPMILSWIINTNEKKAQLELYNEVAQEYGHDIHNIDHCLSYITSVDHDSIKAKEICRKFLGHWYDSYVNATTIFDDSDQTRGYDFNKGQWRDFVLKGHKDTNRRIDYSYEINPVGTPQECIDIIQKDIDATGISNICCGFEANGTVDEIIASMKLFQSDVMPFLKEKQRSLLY
T1 sequence (P19840 1-327 partner): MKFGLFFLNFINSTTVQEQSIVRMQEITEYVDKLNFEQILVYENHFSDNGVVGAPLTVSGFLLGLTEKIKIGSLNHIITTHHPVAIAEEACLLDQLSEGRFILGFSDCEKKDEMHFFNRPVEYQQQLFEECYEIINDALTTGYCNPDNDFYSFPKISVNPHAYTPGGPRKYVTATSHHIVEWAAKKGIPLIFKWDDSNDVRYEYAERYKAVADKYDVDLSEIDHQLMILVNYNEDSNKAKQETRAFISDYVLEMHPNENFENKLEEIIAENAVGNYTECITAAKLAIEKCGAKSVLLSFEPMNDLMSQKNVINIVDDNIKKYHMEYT
Method: Bioluminescence was measured using an FB 14 luminometer (Zylux) with a 1 sec integration time. To prepare the sample for in vitro bioluminescent measurement, 400 μl of the isolated protein extract was combined with 500 μl of either oxidoreductase supplemented light assay solution containing 0.1 mM NAD(P)H, 4 μM FMN, 0.2% (w/v) BSA and 1 U of oxidoreductase protein isolated from V. fischeri (Roche), or oxidoreductase deficient light assay solution (distilled water substituted for the 1 U of oxidoreductase protein). Following the initial bioluminescent reading, samples were amended with 0.002% (w/v) n-decanal and the readings were continued to determine if additional aldehyde could increase light output. All bioluminescent signals were normalized to total protein concentration as determined by BCA protein assay (Pierce) and reported as relative light units (RLU)/mg total protein. […] A 15 μl aliquot of cells was removed and counted using a hemocytometer to allow all values to be normalized to viable cell counts. […]
Total protein was extracted from co-transfected pLuxCDEfrp:CO/pLuxAB or pLuxCDEfrp:WT/pLuxAB cell lines or the pTa2AluxAB transfected cell line using a freeze/thaw procedure. […] Bioluminescence was measured using an FB14 luminometer (Zylux) with a 1 sec integration time. […]

[4] = test system: constitutively bioluminescent HEK293 cells expressing pLuxCDEfrp/pLuxAB; experiment: Bioluminescent measurement in response to toxic chemical exposure (n-decanal); type: cell-based, human
Method: To determine the ability of constitutively bioluminescent HEK293 cells to function as a bioreporter for toxic chemical exposure, cells stably expressing pLuxCDEfrp/pLuxAB were exposed to increasing concentrations of the cytotoxic aldehyde n-decanal. HEK293 cells previously determined to be capable of continuous bioluminescent output from the expression of the pLuxCDEfrp/pLuxAB plasmids were passaged into 75 cm^2 tissue culture flasks (Corning) and grown at 37° C. and 5% CO^2 until they reached 90% confluence. Cells were then harvested by trypsinization and cell number was determined as the average of two counts using a hemocytometer. Approximately 1×10^6 cells per well were plated in all wells in opaque 24-well tissue culture plates (Costar) in DMEM without phenol red and supplemented with 10% fetal bovine serum, 0.01 mM non-essential amino acids, and 0.01 mM sodium pyruvate. Triplicate wells were treated with serial dilutions of n-decanal ranging from 0.1% to 1×10^−5%, with a control set receiving no n-decanal amendment to determine maximal bioluminescent expression. Photon counts were then recorded using an IVIS Lumina in vivo imaging system and analyzed with Living Image 3.0 software (Caliper Life Sciences). The change in light output over time was determined in photons (p)/sec/cm^2/steridian (sr) for each well using integration times of […] once every hour for 24 h and reported as the average of three runs with the standard error of the mean.

[5] = native state, 37° C.; cited from earlier work

C[C@H]1c2cccc(O)c2C(=O)C2=C(O)[C@]3(O)C(=O)C(C(N)=O)=C(O)[C@@H](N(C)C)[C@@H]3[C@@H](O)[C@@H]21 [doxycycline]
average CT value for luxC detection ([1]; 10 ng doxycycline/ml): 11.9 (±0.7) cycles | average CT value for luxC detection ([1]; 100 ng doxycycline/ml): 11.5 (±0.6) cycles | increase in luxC transcription ([1]; 10 ng doxycycline/ml): approximately 11 fold | reduction of cycles to reach CT ([1]; 10 ng doxycycline/ml): 3.5 cycles | increase in luxC transcription ([1]; 100 ng doxycycline/ml): ~20 fold | reduction of cycles to reach CT ([1]; 100 ng doxycycline/ml): 4.3 cycles | average total flux ([2]; 10 ng doxycycline/ml, not significant vs untreated (p=0.06)): 11,500 (±200) p/s | range of total flux over the course of the assay ([2]; 10 ng doxycycline/ml): 1,900 p/s | incubation period to significant up regulation in bioluminescent output ([2]; 100 ng doxycycline/ml): 1 h | average total flux ([2]; 100 ng doxycycline/ml, significant vs untreated (p=1.1×10^−5)): 12,500 (±200) p/s | range of total flux over the course of the assay ([2]; 100 ng doxycycline/ml): 1,800 p/s | maximum measured flux ([2]; induced with 100 ng doxycycline/ml): 1.3 (±0.03)×10^4 p/s

CCCCCCCCCC=O [n-decanal]
increase in light output ([3]; extracts of cells with codon-optimized genes): 58 fold | increase in light output ([3]; extracts of cells with wild-type genes): 16 fold | molar concentration corresponding to the 0.01% treatment ([4]; 0.01% decanal): ~640 µM | start of intermittent deviation in bioluminescent flux ([4]; 0.01% decanal, post addition): 40 min | time after addition until deleterious effects consistently observable ([4]; 0.01% n-decanal): 4 h | effect on bioluminescent output ([4]; 0.1% n-decanal): reduced bioluminescent output immediately following addition | concentration at which the aldehyde became toxic to the HEK293 cell line ([4]; 24 h assay): ≥ 0.01% | effect on bioluminescent output ([4]; remaining treatment levels (below 0.01%, down to 1×10^−5%)): could not be statistically differentiated from cells not receiving treatment

firefly luciferase protein: firefly luciferase reporter protein, heat labile under whole animal imaging conditions
half life [5]: ≥ 3 min
